Data from US6689757B1, “Methods for vaccination and vaccines therefor” (M.L. Laboratories PLC, priority 1996, dated 2004).
Entries after “also recorded” stand apart in the source; their conditions may differ. Like-named read-outs stand apart in the source and are kept apart here.

Legend:
[1] = test system: human dendritic cells; type: cell-based
[2] = Photon correlation spectroscopy (PCS) particle size of K6CL22-DNA complexes; type: physicochemical
[3] = test system: COS cells; type: cell-based; settings: pCMVβ DNA; medium with chloroquine; 5 hours; triplicate; FIG. 7
[4] = Zeta potential analysis of K6CL22-DNA complexes; type: physicochemical; settings: peptide:DNA ratio 1.4:1; Hepes
[5] = test system: cells; type: cell-based

| Substance | optimal peptide:DNA ratio for transfection ([1]; […], FIGS. 16 and 17) | transfection efficiency, CL26-complexed DNA compared to CL22-complexed DNA ([1]; […], FIGS. 16 and 17) | transfection efficiency, CL26-complexed DNA compared to CL22-complexed DNA ([1]; peptide/DNA ratio between 1 and 1.8, FIG. 18) | size of large particles/aggregates of complex ([2]; 150 mM NaCl, after one hour at room temperature, DNA 40 μg/ml) | average (Zav) particle size ([2]; K6CL22-DNA complexes) | average ratio at which aggregation occurs ([2]; K6CL22-DNA complexes) | ratio range in which aggregation occurs ([2]; K6CL22-DNA complexes) | transfection of COS cells (β-galactosidase activity, relative light units per mg of protein) [3] | zeta potential of the complex [4] | effect of coadministered chloroquine on transfection efficiency [5] | transfection of dendritic cells ([1]; complexes of K6Cl22 peptide and pCMVb) | transfection efficiency, CL22-complexed DNA compared to CL26-complexed DNA ([1]; peptide/DNA ratio between 2 and 2.6, FIG. 18) | peptide/DNA ratio with highest transfection efficiency ([1]; ratio varied 1.2-2.6, 40 μM chloroquine, […], FIG. 10) |
| --- | --- | --- | --- | --- | --- | --- | --- | --- | --- | --- | --- | --- | --- |
| H-KKKKKKKKKKKKGGFLGFWRGENGRKTRSAYERMCNILKGK-OH [CL26] | 1.6 mg CL26:1 mg DNA | higher efficiency | higher efficiency | – | – | – | – | – | – | – | – | – | – |
| NH2-KKKKKKGGFLGFWRGENGRKTRSAYERMCNILKGK-COOH (H-KKKKKKGGFLGFWRGENGRKTRSAYERMCNILKGK-OH) [K6CL22] | 1.6-2.2 mg CL22:1 mg DNA | – | – | approx. 100 nm | approximately 100 nm | 1.4 μg peptide/μg DNA | 1.2-1.6 μg peptide/μg DNA | have been transfected; also recorded: very efficient transfection | zero | Increased transfection efficiency | have been transfected | greater | 1.4-2.0 |
